Test results as given in the CheMixHub viscosity set.

Assay: xn = mol fraction of the nth substance listed

ClCCl + COC(=O)OC
viscosity [mPa·s], 101.33 kPa
Details | x2 = 0.0957 | x2 = 0.2018 | x2 = 0.3029 | x2 = 0.3958 | x2 = 0.5009 | x2 = 0.5996 | x2 = 0.6992 | x2 = 0.7599 | x2 = 0.9005
298.15 K | 0.4 | 0.423 | 0.441 | 0.458 | 0.472 | 0.485 | 0.495 | 0.5 | 0.52
303.15 K | 0.384 | 0.4 | 0.419 | 0.431 | 0.447 | 0.461 | 0.47 | 0.478 | 0.49
308.15 K | 0.374 | 0.385 | 0.399 | 0.409 | 0.42 | 0.43 | 0.44 | 0.448 | 0.461

ClCCl + COC(C)=O
298.15 K, 101 kPa
Details | viscosity [mPa·s]
x1 = 0.1033 | 0.374
x1 = 0.1903 | 0.383
x1 = 0.2995 | 0.391
x1 = 0.4016 | 0.398
x1 = 0.5007 | 0.404
x1 = 0.5991 | 0.41
x1 = 0.7017 | 0.414
x1 = 0.8034 | 0.416
x1 = 0.9104 | 0.418

ClCCCl + COCCO
298 K, 101.33 kPa
Details | viscosity [mPa·s]
x2 = 0.1031 | 0.803
x2 = 0.1362 | 0.811
x2 = 0.2067 | 0.83
x2 = 0.2908 | 0.882
x2 = 0.395 | 0.954
x2 = 0.5147 | 1.059
x2 = 0.5965 | 1.138
x2 = 0.6926 | 1.232
x2 = 0.7409 | 1.28
x2 = 0.9141 | 1.458

ClCCl + COCCO
298.15 K, 101 kPa
Details | viscosity [mPa·s]
x2 = 0.1103 | 0.5177
x2 = 0.2181 | 0.5832
x2 = 0.3235 | 0.6707
x2 = 0.4266 | 0.7669
x2 = 0.5274 | 0.8908
x2 = 0.626 | 1.029
x2 = 0.7225 | 1.168
x2 = 0.817 | 1.295
x2 = 0.9095 | 1.428

ClCCl + COCCOCCOC
298.15 K, 101.33 kPa
Details | viscosity [mPa·s]
x2 = 0.097 | 0.546
x2 = 0.1505 | 0.593
x2 = 0.2008 | 0.636
x2 = 0.2942 | 0.711
x2 = 0.3997 | 0.79
x2 = 0.4508 | 0.817
x2 = 0.5008 | 0.843
x2 = 0.5555 | 0.87
x2 = 0.598 | 0.891
x2 = 0.6948 | 0.921
x2 = 0.7543 | 0.938
x2 = 0.8003 | 0.955
x2 = 0.8967 | 0.975
x2 = 0.9205 | 0.98

ClCCl + COCCOCCOCCOCCOC
298.15 K, 101 kPa
Details | viscosity [mPa·s]
x2 = 0.017 | 0.459
x2 = 0.0332 | 0.51
x2 = 0.0557 | 0.586
x2 = 0.0844 | 0.681
x2 = 0.1417 | 0.909
x2 = 0.1831 | 1.075
x2 = 0.236 | 1.294
x2 = 0.2842 | 1.492
x2 = 0.292 | 1.519
x2 = 0.3401 | 1.699
x2 = 0.38 | 1.848
x2 = 0.4698 | 2.155
x2 = 0.5134 | 2.334
x2 = 0.6018 | 2.651
x2 = 0.6882 | 2.749
x2 = 0.7367 | 2.865
x2 = 0.8029 | 2.981
x2 = 0.8758 | 3.111
x2 = 0.9066 | 3.17
x2 = 0.9339 | 3.239

ClCCl + COc1ccccc1
303.15 K, 101.3 kPa
Details | viscosity [mPa·s]
x2 = 0.069 | 0.425
x2 = 0.321 | 0.527
x2 = 0.357 | 0.54
x2 = 0.4045 | 0.567
x2 = 0.6109 | 0.665
x2 = 0.658 | 0.688
x2 = 0.8807 | 0.82

O=S(=O)(O)O + COc1ccccc1
viscosity [mPa·s], 101 kPa
Details | x1 = 0.0892 | x1 = 0.2274 | x1 = 0.5064 | x1 = 0.6238 | x1 = 0.6321 | x1 = 0.6494 | x1 = 0.679 | x1 = 0.7207 | x1 = 0.746 | x1 = 0.9241
293.15 K | 1.46 | 3.17 | 41.69 | 260.3 | 172.8 | 263.5 | 317.9 | 262.1 | 201.3 | 34.68
303.15 K | 1.35 | 1.79 | 30.05 | 166 | 100.8 | 141.3 | 182 | 151.4 | 131.3 | 22.53
313.15 K | 1.25 | 2 | 23.8 | 87.9 | 70.2 | 79.44 | 105 | 83.3 | 71.9 | 16.6
323.15 K | 1.15 | 2.58 | 17.8 | 72.9 | 42.1 | 47.4 | 83.18 | 50.18 | 44.8 | 11.9

CC1CCCC(C)C1=O (stereo not drawn) + COc1ccccc1N
viscosity [mPa·s], 100 kPa
Details | x2 = 0.0997 | x2 = 0.1852 | x2 = 0.2554 | x2 = 0.3527 | x2 = 0.4551 | x2 = 0.5424 | x2 = 0.6519 | x2 = 0.7414 | x2 = 0.8479
303.15 K | 3.865 | 3.998 | 4.106 | 4.247 | 4.383 | 4.491 | 4.612 | 4.701 | 4.797
308.15 K | 3.412 | 3.557 | 3.673 | 3.825 | 3.972 | 4.09 | 4.227 | 4.325 | 4.435
313.15 K | 2.958 | 3.116 | 3.239 | 3.401 | 3.56 | 3.687 | 3.84 | 3.948 | 4.071

C1CCC2=[NH+]CCCN2CC1.c1c[n-]cn1 + CS(C)=O
298.15 K, 100 kPa
Details | viscosity [mPa·s]
x1 = 0.0998 | 3.113
x1 = 0.1996 | 4.415
x1 = 0.2995 | 6.054
x1 = 0.3994 | 8.104
x1 = 0.4994 | 10.52
x1 = 0.5994 | 13.65
x1 = 0.6995 | 17.39
x1 = 0.7996 | 22.07
x1 = 0.8998 | 27.44

CC(=O)O + CS(C)=O
viscosity [mPa·s]
Details | 298.15 K | 303.15 K | 308.15 K | 313.15 K | 318.15 K | 323.15 K
101 kPa, x2 = 0.2 | 2.359 | – | – | – | – | –
101 kPa, x2 = 0.4 | 2.806 | – | – | – | – | –
101 kPa, x2 = 0.6 | 2.525 | – | – | – | – | –
101 kPa, x2 = 0.8 | 2.231 | – | – | – | – | –
101.33 kPa, x1 = 0.0999 | – | 1.891 | 1.728 | 1.588 | 1.463 | 1.353
101.33 kPa, x1 = 0.199 | – | 1.975 | 1.803 | 1.655 | 1.525 | 1.411
101.33 kPa, x1 = 0.2973 | – | 2.082 | 1.898 | 1.738 | 1.605 | 1.482
101.33 kPa, x1 = 0.4013 | – | 2.265 | 2.06 | 1.884 | 1.732 | 1.59
101.33 kPa, x1 = 0.5005 | – | 2.383 | 2.165 | 1.975 | 1.809 | 1.664
101.33 kPa, x1 = 0.5997 | – | 2.46 | 2.223 | 2.024 | 1.848 | 1.695
101.33 kPa, x1 = 0.6966 | – | 2.374 | 2.148 | 1.946 | 1.78 | 1.628
101.33 kPa, x1 = 0.8068 | – | 2.05 | 1.857 | 1.694 | 1.549 | 1.425
101.33 kPa, x1 = 0.9006 | – | 1.601 | 1.464 | 1.345 | 1.241 | 1.149
101.33 kPa, x2 = 0.0978 | 1.755 | – | 1.458 | – | 1.229 | –
101.33 kPa, x2 = 0.1997 | 2.299 | – | 1.876 | – | 1.552 | –
101.33 kPa, x2 = 0.2991 | 2.631 | – | 2.142 | – | 1.762 | –
101.33 kPa, x2 = 0.4069 | 2.728 | – | 2.228 | – | 1.84 | –
101.33 kPa, x2 = 0.5247 | 2.661 | – | 2.17 | – | 1.784 | –
101.33 kPa, x2 = 0.6036 | 2.465 | – | 2.034 | – | 1.694 | –
101.33 kPa, x2 = 0.7038 | 2.303 | – | 1.91 | – | 1.591 | –
101.33 kPa, x2 = 0.804 | 2.178 | – | 1.804 | – | 1.507 | –
101.33 kPa, x2 = 0.903 | 2.081 | – | 1.733 | – | 1.443 | –
